The subject of assay [1] is adult Boophilus microplus ticks. Briefly: whole plant or invertebrate. It is filed as in vivo. The settings on record: Rhipicephalus microplus, in Bos taurus, topical, 48 h, read-out: Percent Adult Tick Mortality. On the procedure:
The effectiveness of an acaricide prepared from the novel 2,2-difluoro-1,3-dioxole-5-(α-alkyl)acetic acids of the present invention for the control of adult Boophilus microplus ticks is determined in the following test wherein the test compound is dissolved in 10% acetone-90% water mixture in sufficient amounts to give solutions containing […] ppm of test compound.
Adult engorged female ticks are dipped in the test solutions for 3 seconds and placed in individual containers and held for 48 hours in a room maintained at 80° F and 50% r.h. At the end of the holding period the ticks are examined and egg deposits counted. […]
Percent Adult Tick Mortality

For assay [2], the system named is Third-Instar Tobacco Budworm Larvae. Kind of assay: whole plant or invertebrate. It is filed as in vivo. The settings on record: Heliothis virescens, in Gossypium hirsutum, foliar, 72 h, larval counts after 72 hours; for mortality at 30 ppm: read-out: Average % Mortality, 30 ppm; for mortality at 100 ppm: read-out: Average % Mortality, 100 ppm; for mortality at 300 ppm: read-out: Average % Mortality, 300 ppm; for mortality at 900 ppm: read-out: Average % Mortality, 900 ppm. An excerpt: Residual insecticidal activity obtained with foliar treatment of cotton plants Young cotton plants with at least two expanded true leaves growing in 10 cm plastic pots were dipped, usually one leaf at a time in a 65% acetone-35% water solution of test compound with agitation for three seconds. The concentration of the compound in the solutions was 30 ppm, 100 ppm, 300 ppm or 900 ppm of active ingredient. After the leaves had dried, two leaves from each of two plants were excised and placed in petri dishes (90 mm × 100 mm) on moist filter paper (9 cm Whatman No. 1). Five third-instar tobacco budworm larvae were placed on each leaf and the petri dish capped. The infested dishes were than placed in a holding room with continuous light, ambient temperature of 80° F and 50% r.h. Larval counts were made after 72 hours. The remaining plants were placed under high intensity lights in the greenhouse adjusted to provide 14 hours of light per day. Leaf samples were assayed with third instar tobacco budworm larvae after 3, 7, 10 and 14 days exposure in the greenhouse. The data obtained are summarized in Table I. |Residual Insecticidal Activity of a Test Compound on Cotton Plants Using |Third-Instar Tobacco Budworm Larvae for Bioassay | * = Average % Mortality 20 TBW/Point

Read-outs that look alike come from different tables or passages of the source.

By mortality is commonly meant the share of the test organisms that died. In the case of `CC(C)C(C(=O)OC(C#N)c1cccc(Oc2ccccc2)c1)c1ccc2c(c1)OC(F)(F)O2` (stereo not shown) [drawing 7], in assay [1], the mortality at 7.3 ppm was found to be 80.2%, the mortality at 15.6 ppm is 85.8%, the mortality at 31.2 ppm is 88.4% and the mortality at 62.5 ppm amounted to 99.7%. Besides, the mortality at 125 ppm in assay [1] was 98.3%.
Consider `CC(C)C(C(=O)OC(C#N)c1cccc(Oc2ccccc2)c1)c1ccc2c(c1)OC(F)(F)O2` (stereo not shown) [drawing 6], for which the mortality at 30 ppm in assay [2] (0 days residual) is 45%; in assay [2] (3 days residual), 0%; in assay [2] (7 days residual), 10%; in assay [2] (10 days residual), 10%; in assay [2] (14 days residual), 10%. Besides, the mortality at 100 ppm in assay [2] (0 days residual) amounted to 90%; in assay [2] (3 days residual) it was 55%; in assay [2] (7 days residual) it was 55%; in assay [2] (10 days residual), 65%; in assay [2] (14 days residual), 10%. For the same molecule, the mortality at 300 ppm in assay [2] (0 days residual) is 95%; in assay [2] (3 days residual), 90%; in assay [2] (7 days residual), 100%; in assay [2] (10 days residual) it was 90%; in assay [2] (14 days residual), 95%. Also, the mortality at 900 ppm in assay [2] (0 days residual), in assay [2] (3 days residual), in assay [2] (7 days residual), in assay [2] (10 days residual) and in assay [2] (14 days residual) was 100% throughout.

For the origin of these results see patent publication US4110345A, “2,2-Difluoro-1,3-benzodioxole-5-(α-alkyl)-acetic acids, and their use for the preparation of insecticides and acaricides” (American Cyanamid Company, priority 1977, dated 1978).
